Test systems include 786-0 renal; MDA-MB-435; NCI-H226 lung; NCI-H23 lung; OVCAR-5 ovarian; SR leukemia; T-47D breast; TK-10 renal.
What all share (assay): NCI anticancer screen, dose series, 48 h

Values joined by “and” are separate entries in the source; they are usually repeats but may differ in a detail not shown here. Equal entries are not always repeated.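 Method: 48-hour compound exposure of cells in 96-well plates, five concentrations, linear interpolation of endpoints. GI50: concentration for 50% inhibition of growth. The concentration for full growth arrest is given as TGI.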

In the case of `O=C(O)[C@@H]1C2CC([C@@H]1C(=O)O)[C@H](N1C(=O)CCC1=O)[C@@H]2Br` (some centres not stated), the TGI in the assay with 786-0 renal, with MDA-MB-435, in the assay on NCI-H226 lung, in the assay on NCI-H23 lung, in the assay on OVCAR-5 ovarian and in the assay with SR leukemia was above 100 µM each time. The TGI with T-47D breast and with TK-10 renal was above 100 µM in each case.

On to `CCCN(Cc1ccc(F)cc1)c1ccc(CO)c(Cl)c1`, for which the GI50 in the assay with 786-0 renal is 4.77 µM; in the assay with MDA-MB-435, 14.6 µM; with NCI-H226 lung, 0.0365 µM; in the assay with NCI-H23 lung, 4.24 µM; in the assay with OVCAR-5 ovarian, 0.168 µM; with SR leukemia, 13.6 µM. For the same molecule, the GI50 in the assay with T-47D breast is 0.119 µM; with TK-10 renal, 0.0777 µM. For the same molecule, the TGI in the assay with 786-0 renal was found to be 19.7 µM; with MDA-MB-435, 29 µM; in the assay with NCI-H226 lung it was 0.144 µM; with NCI-H23 lung, 20.2 µM; with OVCAR-5 ovarian it was 0.528 µM; in the assay with SR leukemia it was 35.4 µM. For the same molecule, the results for the TGI with T-47D breast and in the assay with TK-10 renal were 0.733 µM and 0.357 µM, respectively.

Take `CC12CCC=CC1CCC1C2CCC2(C)C(c3ccc(=O)oc3)CCC12O` (configuration not stated): the GI50 in the assay with 786-0 renal is 0.0618 µM; in the assay on MDA-MB-435, 0.108 µM; in the assay with NCI-H226 lung, 0.224 µM; with NCI-H23 lung, 0.0492 µM; in the assay with OVCAR-5 ovarian, 0.176 µM; with SR leukemia, 0.0311 µM. Besides, the GI50 was 0.181 µM in the assay on T-47D breast and 0.0479 µM with TK-10 renal. Also, the TGI was found to be 0.357 µM in the assay with 786-0 renal; 0.528 µM with MDA-MB-435; 0.614 µM with NCI-H226 lung; 0.302 µM in the assay with NCI-H23 lung; 0.485 µM in the assay with OVCAR-5 ovarian; 0.11 µM with SR leukemia. In addition, the TGI in the assay with T-47D breast was determined as 1.05 µM; in the assay on TK-10 renal, 0.499 µM.

As to `CC1=C(C(=O)OCc2ccccc2)C(c2ccc3c(c2)OCO3)n2c(nc3ccccc32)N1` (configuration not stated), the GI50 in the assay on 786-0 renal is 0.47 µM; in the assay with MDA-MB-435, 0.0842 µM; in the assay on NCI-H226 lung, above 100 µM; with NCI-H23 lung it was above 56.4 µM; in the assay with OVCAR-5 ovarian it was above 100 µM; in the assay on SR leukemia, 0.4 µM. Besides, the results for the GI50 in the assay on T-47D breast and in the assay on TK-10 renal were 0.508 µM and above 100 µM, respectively. Further, the TGI in the assay on 786-0 renal was above 100 µM; in the assay with MDA-MB-435, 0.351 µM; in the assay with NCI-H226 lung it was above 100 µM; with NCI-H23 lung, above 100 µM; in the assay with OVCAR-5 ovarian it was above 100 µM; in the assay with SR leukemia, above 100 µM. For the same molecule, the TGI in the assay on T-47D breast and with TK-10 renal was above 100 µM each time.

For the molecule `N=C(N)c1nn(C2OC(CO)C(O)C2O)c2nc[nH]c(=O)c12` (configuration not stated), the GI50 in the assay with 786-0 renal is 0.642 µM; in the assay with MDA-MB-435, 0.311 µM; in the assay with NCI-H226 lung it was 0.611 µM; in the assay on NCI-H23 lung, 0.727 µM; in the assay on OVCAR-5 ovarian it was 2.85 µM; in the assay with SR leukemia it was 0.34 µM. Besides, the GI50 in the assay with T-47D breast is 0.255 µM; in the assay on TK-10 renal, 0.363 µM. Further, the TGI with 786-0 renal turned out to be 4.61 µM; in the assay with MDA-MB-435 it was 1.16 µM; in the assay with NCI-H226 lung, 3.74 µM; in the assay on NCI-H23 lung, 3.63 µM; in the assay with OVCAR-5 ovarian, 14.2 µM; with T-47D breast, 2.71 µM. Besides, the TGI with TK-10 renal was 2.17 µM.

As to `CC12CCC(=O)C=C1CCC1C2CCC2(C)C(C(=O)Cn3cnc4c(=S)nc[nH]c43)CCC12` (configuration not stated), the TGI with 786-0 renal was above 100 µM; in the assay on MDA-MB-435, 96.4 µM; in the assay with NCI-H226 lung, above 100 µM; in the assay on NCI-H23 lung it was 82.5 µM; in the assay on OVCAR-5 ovarian it was above 100 µM; in the assay with SR leukemia it was above 100 µM. The TGI with T-47D breast and in the assay on TK-10 renal was above 100 µM throughout.

`COc1cc2c(cc1OC)-c1ccc3cc4c(cc3c1N(CCN1CCCC1)C2)OCO4`: the GI50 with 786-0 renal was 0.477 µM; in the assay on MDA-MB-435, 1.36 µM; in the assay with NCI-H226 lung it was 0.876 µM; with NCI-H23 lung it was 0.447 µM; in the assay on OVCAR-5 ovarian, 1.34 µM; in the assay on SR leukemia, 0.0696 µM. The GI50 with T-47D breast is 0.361 µM; in the assay on TK-10 renal, 3.46 µM. In addition, the TGI with 786-0 renal was 1.92 µM; in the assay on MDA-MB-435 it was 6.13 µM; with NCI-H226 lung, 3.16 µM; in the assay with NCI-H23 lung it was 2.14 µM; in the assay with OVCAR-5 ovarian, 4.9 µM; in the assay on SR leukemia, 1.23 µM. The TGI in the assay with T-47D breast came to 2.28 µM; with TK-10 renal it was 12.5 µM.

Take `O=C(Nc1cccc(Cl)c1)Nc1ncc(CCNc2ncnc3ccsc23)s1`: the GI50 with 786-0 renal is 7.55 µM and 6.41 µM; in the assay with MDA-MB-435, 1.99 µM and 1.89 µM; with NCI-H226 lung, 1.86 µM and 2.06 µM; with NCI-H23 lung, 2.08 µM and 2.49 µM; with OVCAR-5 ovarian, 9.88 µM and > 10 µM; with T-47D breast it was 2.26 µM and 1.27 µM. Further, in the assay with TK-10 renal, the GI50 was 3.46 µM and 4.18 µM. The TGI is 41.1 µM and > 10 µM in the assay on 786-0 renal; 14.2 µM and > 10 µM in the assay on MDA-MB-435; 8.98 µM and > 10 µM in the assay on NCI-H226 lung; 20.1 µM and > 10 µM in the assay on NCI-H23 lung; 25.5 µM and > 10 µM with OVCAR-5 ovarian; 20.8 µM and > 10 µM in the assay on SR leukemia. In addition, the TGI was 7.5 µM and 5.63 µM with T-47D breast; 16.1 µM and > 10 µM in the assay with TK-10 renal.

With `CC(=O)OC1c2ccccc2CC2(OC(C)=O)c3ccccc3C12` (configuration not stated), the TGI in the assay on 786-0 renal, with MDA-MB-435, in the assay with NCI-H226 lung, in the assay with NCI-H23 lung, in the assay with OVCAR-5 ovarian and in the assay on SR leukemia was above 100 µM throughout. Moreover, the TGI in the assay with T-47D breast and in the assay with TK-10 renal was above 100 µM each time.

Regarding `CCc1ccc(NC(=O)Nc2c[nH]c3ccccc23)cc1`, the GI50 is 8.55 µM in the assay with 786-0 renal; 22.6 µM with MDA-MB-435; 7.29 µM in the assay on NCI-H226 lung; 36.3 µM in the assay with NCI-H23 lung; 34 µM in the assay on OVCAR-5 ovarian; 2.2 µM in the assay with SR leukemia. The values for the GI50 in the assay with T-47D breast and in the assay on TK-10 renal were 16.3 µM and above 46.1 µM, respectively. The TGI with 786-0 renal was above 81.9 µM; in the assay with MDA-MB-435, above 49.5 µM; in the assay with NCI-H226 lung, above 52.4 µM; with NCI-H23 lung it was above 54.1 µM; in the assay on OVCAR-5 ovarian it was above 57.9 µM; with SR leukemia it was above 100 µM. Besides, the figures for the TGI in the assay with T-47D breast and with TK-10 renal were above 82.2 µM and above 70.9 µM, respectively.

For the molecule `O=C(O)CS(=O)(=O)C(c1ccccc1)c1ccccc1`, the TGI with 786-0 renal, with MDA-MB-435, in the assay with NCI-H226 lung, with NCI-H23 lung, with OVCAR-5 ovarian and in the assay on SR leukemia was above 100 µM in each case. The TGI with T-47D breast and with TK-10 renal was above 100 µM each time.
